{"source": "patent US20250295619A1", "about": "“Use of Salvianolic Acid E in the Preparation of Drugs Targeting Senescent Cells, Inhibiting Tumors or Extending Lifespan” (Shanghai Institute of Nutrition and Health, Chinese Academy …, priority 2024, published 2025)", "key": {"PSC27": {"tested_on": "PSC27", "test": "Caspase 3/7 apoptosis detection in senescent PSC27 cells (IncuCyte)", "format": "cell-based, human", "conditions": "200 μM SAE", "procedure": "PSC27 cells gradually entered the senescent stage after being treated with BLEO for 12 hours under culture conditions. 200 μM SAE was added to the medium of senescent cells starting from day 7, NucLight Rapid Red reagent was used to label the cells and caspase 3/7 reagent (IncuCyte) was used for apoptosis detection. Caspase 3/7 activity was detected every 4 hours (n=3).\nStatistical differences are obtained by two-way ANOVA (Turkey'test).\nPSC27 cells were plated in a 96-well dish, and the cells were induced to senescence under 50 μg/ml of BLEO treatment. SAE and ABT263 were added at concentrations of 200 μM and 1.25 μM, respectively. Cell culture medium was supplemented with Incucyte Nuclight fast Red Reagent (Essen Bioscience) and Incucyte C-3/7 Apoptosis Reagent (Essen Bioscience). Representative field of view was selected to take pictures."}, "SASP": {"tested_on": "SASP", "test": "qRT-PCR of typical SASP molecules in BLEO-induced senescent PSC27 cells at different SAE concentrations", "format": "cell-based, human", "procedure": "All data are normalized results compared to the CTRL group. *P<0.05, **P<0.01, ***P<0.001.\nTo cause cell damage, 50 μg/mL bleomycin (bleomycin, BLEO) was added to the culture medium when PSC27 cells grew to 80% (abbreviated as PSC27-CTRL). After 12 hours of drug treatment, the cells were simply washed 3 times with PBS, left in the culture medium for 7-10 days, and then the subsequent experiments were performed.\nTotal RNA of cells in the growth phase or stasis phase was extracted with Trizol reagent. 1 mL Trizol was added to each T25 culture flask. The cell layer was scraped off with a cell scraper, transferred into a centrifuge tube and mixed well until not viscous. […]\nSamples were loaded according to the above standard, and the reaction conditions were: 95° C. pre-denaturation for 15 seconds, then 95° C. for 5 seconds, 60° C. for 31 seconds, 40 cycles; melting curve conditions were 95° C. for 15 seconds, 60° C. for 30 seconds, 95° C. for 15 seconds. […] After the reaction was completed, the amplification of each gene was checked by software analysis, the corresponding threshold cycle number was derived, and the relative expression of each gene was calculated using the 2-ΔΔCt method. The peak and waveform of the melting curve was analyzed to determine whether the obtained amplification product was a specific single target fragment."}}}
{"smiles": "O=C(/C=C/c1ccc(O)c(O)c1/C(=C\\c1ccc(O)c(O)c1)C(=O)O[C@H](Cc1ccc(O)c(O)c1)C(=O)O)O[C@H](Cc1ccc(O)c(O)c1)C(=O)O", "note": "[SAE, salvianolic acid E]", "values": [{"measurement": "caspase-3/7 activity: apoptosis of senescent cells", "setting": "PSC27", "result": "caused apoptosis of senescent cells"}, {"measurement": "time after addition of SAE from which senescent and control group differ statistically", "setting": "PSC27; caspase 3/7 activity", "result": "≥ 16", "unit": "h"}, {"measurement": "inhibition of SASP development at lower or higher concentrations", "setting": "SASP; compared with 50 μM", "result": "less effective"}, {"measurement": "working concentration that inhibited SASP development with the greatest efficiency", "setting": "SASP; concentration gradient, senescent PSC27", "result": 50, "unit": "µM"}]}
